According to US12729368B2, “Methods and compositions for generating oligodendrocyte progenitor cells” (Trailhead Biosystems Inc., priority 2022, dated 2026):
Values joined by “and” are separate entries in the source; they are usually repeats but may differ in a detail not shown here. Equal entries are not always repeated.

How the values were obtained:
[1] = test system: pre-OPCs; experiment: HD-DoE second 12-factor model for stage 2 (Purmorphamine with TTNPB, Biotin, Insulin etc.); format: cell-based, human; settings: optimized for OLIG2 at 3299.4; positive impact
Protocol: (§1) To gain more information about the effect of Purmorphamine on differentiation of pre-OPCs to a more committed cell population, we tested this factor in two other models. In a 12-factor model, we included Purmorphamine, FGF2, AGN193109 and CHIR99021 along with 8 new inputs including TTNPB, Biotin, Insulin, propionate, DBZ, Yhhu3792, LDN193189 and Y-27632. […] In another 12-factor model, Purmorphamine was tested along with A 8301, CHIR99021, Dexamethasone, T3+T4, PD0325901, ZM336372, DBZ, BMP7, PD173074, SANT-1 and PDGF-AA.

[2] = test system: stage 1 pre-OPCs; experiment: HD-DoE third 12-factor model for stage 2 (Purmorphamine with A 8301, Dexamethasone etc.); format: cell-based, human; settings: optimized for OLIG2 at 644.6; positive impact
Protocol: as §1

[3] = test system: OPCs; experiment: HD-DoE 12-factor model for stage 4 on OPCs, 6 days in culture; format: cell-based, human; settings: optimized for PLP1 at 3600; negative impact
Protocol: To engineer the recipe of stage 4 of differentiation, 48 or 96 different combinations of effectors generated using Design-of-Experiments compression through D-optimality were robotically prepared. The effector combinations were prepared in a basal media and were subsequently added to the cells, which were treated with the stage 1, stage 2 and stage 3 differentiation media as described in the earlier examples to generate OPCs. […] Solutions within the tested space could then be explored to address desirability. […] Benarroch (2009) Neurology 72:1779-1785; Shi et al. (2019) Exp Ther Med, 18:1258-1266).

[4] = test system: pre-OPCs; experiment: HD-DoE 12-factor model for stage 2 (version 1), 3 days on stage 1 pre-OPCs; format: cell-based, human; settings: for factor contribution: optimized for maximum expression of OLIG2 at 1841.6
Procedure, shortened: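 Cells grown first in stage 1 medium were treated for 3 days with combinations of 8 or 12 factors, including FGF, TGF-b, WNT, RA, AKT, SHH, mTOR and PKC pathway modulators. Gene expression was modelled and maximized for OLIG2, with NKX2-2, SOX10, OLIG1 and PDGFRa tracked by dynamic profile analysis.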

[5] = test system: human pluripotent stem cells; experiment: HD-DoE #2: 13-factor model, differentiation toward anterior neuroectoderm, gene expression; format: cell-based; settings: dynamic profiling analysis, 13-factor model
From the text: To further enhance the conditions for oligodendrocyte differentiation from pluripotency, we performed an additional HD-DoE experiment. We obtained additional gene regulatory models that were used for preparation of a differentiation protocol. The basis of this was a 13-factor HD-DoE experiment with focus on initiation of differentiation of cells toward anterior neuroectoderm. In this model, we focused on expression of FEZF2 and OTX2.
As shown in the results summarized in FIG. 4, the model was optimized for highest expression of OTX2 at 12755.9. According to the model of high expression of OTX2, seven effectors had positive contribution including MK2206, PD0325901, CHIR99021, LDN193189, Go6983, PD173074 and BLU9931 with highest factor contribution of 22.2 for MK2206 and lowest factor contribution of 1.7 for PD173074 and BLU9931.
As shown in the results summarized in FIG. 5, the model was optimized for highest expression of FEZF2 at 4466. When the model was optimized for maximum expression level of FEZF2, three effectors including LDN193189 with factor contribution of 19.5, PD0325901 with factor contribution of 14.6 and MK2206 with factor contribution of 12.3 were common with previous condition and three new effectors including purmorphamine-500 nM, XAV939 and SC79 were introduced.
As shown in the results summarized in FIG. 6, to fine-tune the recipe and find the optimum combination of factors for high expression of both OTX2 and FEZF2, dynamic profiling analysis was done. […] Therefore, these two factors were added to the optimized culture recipe.

[6] = test system: OPCs; experiment: HD-DoE 8-factor model for stage 4 on OPCs; format: cell-based, human; settings: optimized for maximal expression of CNP at 1339; positive
Protocol: To engineer the recipe of stage 4 of differentiation, 48 or 96 different combinations of effectors generated using Design-of-Experiments compression through D-optimality were robotically prepared. The effector combinations were prepared in a basal media and were subsequently added to the cells, which were treated with the stage 1, stage 2 and stage 3 differentiation media as described in the earlier examples to generate OPCs. […] Solutions within the tested space could then be explored to address desirability.

[7] = test system: cells cultured in stage 1 and stage 2 differentiation media; experiment: Two further HD-DoE models optimized for SOX10 (IGF-1, FGF-2, AGN193109); format: cell-based, human; settings: two other models optimized for SOX10
From the text: According to literature, proteins such as FGF-2, IGF-1, PDGF-AA and NT-3 play an important role in oligodendrocyte differentiation (Goldman and Kuypers (2015) Development 142:3983-95). In the first model, FGF-2 had positive regulatory impact only on the expression level of SOX10 and IGF-1 on PDGFRa. Therefore, to further understand the impact of IGF-1 and FGF-2 on differentiation of cells and confirm their positive role, we included these factors in two other models and optimized the models for maximum expression of SOX10. This gene is one of the main transcription factors of oligodendrocytes, along with OLIG2 and NKX2-2 that has shown the potential to commit the stem cells to oligodendrocytes in reprogramming efforts (Wang et al, (2014) Proc Natl Arad Sri USA 111:E2885-94; García-León et al. (2018) Stem Cell Reports 10:655-672).

Compound	factor contribution [1]	factor contribution [2]	factor contribution [3]	effect on expression of SOX10 ([4]; dynamic profile, model maximized for OLIG2)	factor contribution ([4]; negative impact)	effect on expression of FEZF2 [5]	impact on expression level of OTX2 [5]	factor contribution [6]	impact on the expression level of SOX10 [7]	factor contribution ([4]; positive regulatory effect)
c1ccc2c(Oc3nc(Nc4ccc(N5CCOCC5)cc4)c4ncn(C5CCCCC5)c4n3)cccc2c1 [Purmorphamine]	13 and 13.03	16.9	10	positively regulate	7.2	significant positive effects	no negative impact	10		
FGF2: FGF pathway activator, an FGFR agonist									positive impact	12.9
